Assay results as given in PubChem BioAssay (NCI).
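All cell lines were grown in 96-well plates and treated with compound for 48 hours. TGI denotes the concentration required for complete inhibition of growth.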

Assays:
Test in all cases: NCI anticancer screen, dose series, 48 h
KM12 colon = system: KM12 colon
RXF 393 renal = system: RXF 393 renal
RPMI-8226 leukemia = system: RPMI-8226 leukemia
COLO 205 colon = system: COLO 205 colon
NCI-H226 lung = system: NCI-H226 lung
SK-MEL-2 melanoma = system: SK-MEL-2 melanoma
MDA-MB-435 = system: MDA-MB-435
SW-620 colon = system: SW-620 colon
NCI-H23 lung = system: NCI-H23 lung
SK-OV-3 ovarian = system: SK-OV-3 ovarian
SK-MEL-5 melanoma = system: SK-MEL-5 melanoma
OVCAR-3 ovarian = system: OVCAR-3 ovarian
SF-268 CNS = system: SF-268 CNS
BT-549 breast = system: BT-549 breast
SF-539 CNS = system: SF-539 CNS
HCT-15 colon = system: HCT-15 colon
SN12C renal = system: SN12C renal
DU-145 prostate = system: DU-145 prostate
HS 578T breast = system: HS 578T breast
LOX IMVI melanoma = system: LOX IMVI melanoma

Compound | TGI (KM12 colon) [µM] | TGI (RXF 393 renal) [µM] | TGI (RPMI-8226 leukemia) [µM] | TGI (COLO 205 colon) [µM] | TGI (NCI-H226 lung) [µM] | TGI (SK-MEL-2 melanoma) [µM] | TGI (MDA-MB-435) [µM] | TGI (SW-620 colon) [µM] | TGI (NCI-H23 lung) [µM] | TGI (SK-OV-3 ovarian) [µM] | TGI (SK-MEL-5 melanoma) [µM] | TGI (OVCAR-3 ovarian) [µM] | TGI (SF-268 CNS) [µM] | TGI (BT-549 breast) [µM] | TGI (SF-539 CNS) [µM] | TGI (HCT-15 colon) [µM] | TGI (SN12C renal) [µM] | TGI (DU-145 prostate) [µM] | TGI (HS 578T breast) [µM] | TGI (LOX IMVI melanoma) [µM]
COc1ccc2nc3n(c2c1)C(c1c(F)cccc1F)SC3 (stereo not given) | > 100 | > 100 | > 100 | > 100 | 66.2 | 74.9 | > 100 | > 100 | > 100 | > 100 | > 100 | > 100 | > 100 | > 100 | > 100 | > 100 | > 100 | > 100 | 87.7 | > 100
CCOC(=O)c1c(N2CCOCC2)ncn(-c2cccc(Cl)c2)c1=O | > 100 | > 100 | > 100 | > 100 | > 100 | > 100 | > 100 | > 100 | > 100 | > 100 | – | > 100 | > 100 | > 100 | > 100 | > 100 | > 100 | > 100 | > 100 | > 100
c1ccc(C2=NN=C3C(c4ccccc4)=Nc4ccccc4N3C2)cc1 | > 100 | > 100 | 40.8 | 52.8 | > 70.2 | > 82.2 | 98.7 | > 100 | > 100 | > 100 | 40.7 | > 24.5 | > 60.2 | > 100 | > 100 | > 100 | > 100 | > 100 | 67.5 | > 100
COc1ccc(CCc2ccc3c(c2)OCO3)cc1 | > 100 | 86 | > 100 | > 100 | > 100 | 92.4 | 42.6 | > 100 | > 100 | > 100 | > 100 | > 100 | > 100 | > 100 | > 100 | > 100 | > 100 | > 100 | > 100 | > 100
CCOC(=O)c1csc(C(CSCc2ccc(OC)cc2)N2C(=O)c3ccccc3C2=O)n1 (stereo not given) | > 100 | > 100 | > 100 | > 100 | > 100 | – | > 100 | > 100 | > 100 | > 100 | > 100 | > 100 | > 100 | > 100 | > 100 | > 100 | > 100 | > 100 | > 100 | > 100
Cc1ccc(C)n2c1nc1cc3ccccc3cc12 | > 100 | > 100 | > 100 | > 100 | > 100 | – | > 100 | > 100 | > 100 | > 100 | 93 | > 100 | > 100 | > 100 | > 100 | > 100 | > 100 | > 100 | > 100 | –
CCO[C@@]12CCC3CC4CC[C@@](OCC)(O1)C4C32 (stereo not given in full) | > 100 | > 100 | > 100 | > 100 | > 100 | > 100 | > 100 | > 100 | > 100 | > 100 | > 100 | > 100 | > 100 | > 100 | > 100 | > 100 | > 100 | > 100 | > 100 | > 100
C[C@H](c1ccccc1)n1c(N)c(-c2nc3ccccc3s2)c2ccc([N+](=O)[O-])cc2c1=O | 61.2 | – | 1.87 | 36.4 | > 63.1 | > 28.7 | > 79.7 | > 100 | 6.66 | > 100 | 19.8 | > 100 | > 100 | > 95.9 | 54 | > 75.4 | > 100 | > 38.8 | > 43.7 | > 66.6
CC(=Nc1cccc(Cl)c1)c1ccncc1 | > 100 | > 100 | > 100 | > 100 | > 100 | > 100 | > 100 | > 100 | > 100 | > 100 | > 100 | > 100 | > 100 | > 100 | > 100 | > 100 | > 100 | > 100 | > 100 | > 100
COC(=O)[C@@H](NC(=O)[C@H](N)Cc1ccc(N(CCCl)CCCl)cc1)C(C)C | 66.4 | 55.5 | 34 | > 64.4 | 59.2 | > 100 | 47.5 | > 77.3 | 16.8 | > 100 | 10.8 | > 72.8 | 97.1 | 65.3 | 67.6 | 72.8 | > 79.7 | 59.1 | 77.7 | 37.9
O=c1[nH]c2ccc(Cl)cc2o1 | > 100 | > 100 | > 100 | > 100 | > 100 | – | > 100 | > 100 | > 100 | > 100 | > 100 | > 100 | > 100 | > 100 | > 100 | > 100 | > 100 | > 100 | > 100 | > 100
Cc1ccc2c(c1)C=CC1(O2)N(c2ccccc2)C(=S)OC1(C)C (stereo not given) | > 100 | > 100 | > 100 | > 100 | > 100 | > 100 | > 100 | > 100 | > 100 | > 100 | > 100 | > 100 | > 100 | > 100 | – | > 100 | > 100 | > 100 | > 100 | > 100
C1=Nc2ccc(cc2)-c2ccc(cc2)N=Cc2ccc(cc2)OCc2cccc(n2)COc2ccc1cc2 | > 100 | > 100 | > 100 | > 100 | > 100 | > 100 | > 100 | > 100 | > 100 | > 100 | > 100 | > 100 | 62.1 | > 100 | > 100 | > 100 | > 100 | > 100 | 73.2 | –
Cc1ccc(C(C)C)c(OCC(=O)N/N=C/c2c[nH]c3ccc(Br)cc23)c1 | 6.3 | 3.42 | 7.32 | 3.55 | – | 7.22 | 2.93 | 18.6 | 14.2 | 12.7 | 4.43 | 5.92 | 23.9 | 18.7 | 4 | 14.9 | 13 | 8.06 | 20.2 | 16.4
O=CC(O)C(O)C1OC(=O)c2cc(O)c(O)c(O)c2C2=C(O)C(O)=C3OC(=O)c4c(c(O)c(O)c5c4C3C2C(=O)O5)-c2c(cc(O)c(O)c2O)C(=O)OCC1O (stereo not given) | 31.2 | > 100 | > 100 | > 100 | > 100 | > 100 | 34.1 | 36.3 | > 100 | > 100 | > 100 | 57 | > 100 | > 100 | – | > 100 | 30.4 | > 100 | > 100 | 31.9
C=CCc1oc(C)nc1CCCC | > 100 | > 100 | – | > 100 | > 100 | – | > 100 | > 100 | > 100 | > 100 | > 100 | > 100 | > 100 | > 100 | > 100 | > 100 | > 100 | > 100 | > 100 | > 100
CC1=NN(C(=O)CC(=O)NC(=O)/C=C\c2ccccc2)C(=O)C1N=Nc1ccc([N+](=O)[O-])cc1 (stereo not given) | > 100 | > 100 | > 100 | > 100 | – | – | > 100 | > 100 | > 100 | > 100 | – | > 100 | > 100 | 83.5 | > 100 | > 100 | > 100 | > 100 | > 100 | > 100
O=[N+]([O-])c1cccc(-c2cn3c(n2)Cc2ccccc2C3)c1 | > 100 | > 100 | – | > 100 | > 100 | > 100 | > 100 | > 100 | > 100 | > 100 | > 100 | – | > 100 | > 100 | > 100 | > 100 | > 100 | > 100 | > 100 | > 100
COC(=O)[C@]12C3=C(O)C(=O)C[C@H]1OC[C@H]2C=CC3 | > 100 | > 100 | > 100 | > 100 | – | > 100 | > 100 | 63.4 | > 100 | > 100 | > 100 | > 100 | > 100 | > 100 | – | > 100 | > 100 | > 100 | > 100 | > 100
CC(NP(=O)(c1ccccc1)c1ccccc1)c1ccccc1 (stereo not given) | > 100 | > 100 | > 100 | > 100 | > 100 | – | > 100 | > 100 | > 100 | > 100 | > 100 | > 100 | > 100 | > 100 | > 100 | > 100 | > 100 | > 100 | > 100 | > 100
C=CCSC1=N/C(=C\c2ccc(OC)cc2)C(=O)N1CC=C | 71.7 | 50.1 | 42 | 40.2 | – | 91.5 | > 100 | > 100 | > 100 | > 100 | 29 | > 100 | > 100 | 74.4 | > 100 | > 100 | 62.2 | > 100 | > 100 | > 100
C[C@@H](NC(=O)Cn1c(Cl)nc2ccccc21)c1ccccc1 | > 100 | > 100 | > 100 | > 100 | > 100 | > 100 | > 100 | > 100 | > 100 | > 100 | > 100 | > 100 | > 100 | > 100 | > 100 | > 100 | – | > 100 | > 100 | > 100
O=C1C=C(NCC(c2ccccc2)c2ccccc2)C(=O)c2ncccc21 | 16.5 | – | 5.84 | 24.4 | 9.71 | 9.13 | 2.84 | – | 5.76 | 47.6 | 1.62 | 3.32 | 13.8 | 5.09 | 8.55 | 1.34 | 5.16 | 4.74 | 12.3 | 5.23
COc1ccc(C[C@@H](C(=O)O[C@H](C)[C@H](NC(=O)[C@@H](CC(C)C)N(C)C(=O)C2CCCN2C(=O)[C@H](C)O)C(=O)N2CCCCNC(=O)[C@@H](C)C(=O)[C@H](C(C)C)OC(=O)C[C@H](O)[C@H]2CC(C)C)N(C)C(C)=O)cc1 (stereo not given in full) | 31.6 | 20.6 | 26.8 | 14.8 | 49.5 | > 50 | > 50 | 28.4 | 42.5 | > 50 | 34.1 | > 50 | > 50 | > 50 | 17.1 | > 50 | > 50 | > 50 | 34.8 | –
